Experimental data from patent US5098613A, “Anti-inflammatory agents” (Eli Lilly and Company, priority 1990, dated 1992).
Where a name gives a salt, the structure may show the parent alone.

Tests used:
[1] = test system: Arachidonic Acid Induced Ear Edema; assay: Arachidonic Acid-Induced Ear Edema Assay; assay type: in vivo, Female BALB/C mice; details: Mus musculus, 1 h, topical, one hour prior to arachidonic acid, read-out: Percent Inhibition of Ear Swelling; for inhibition in vivo at 0.05 %: 0.05% in ethanol gel; for inhibition in vivo at 1 %: 1% in ethanol gel
Method: Female BALB/C mice (Charles River; 18-20 rams) were divided into groups of five. Arachidonic acid was dissolved in ethanol at a concentration of 200 mg/ml. Each mouse received 2 mg/ear of arachidonic acid on the inner surface of the right ear. This dose of phlogistic was applied by an automatic pipette in 10 mcl volumes. The left ear (control) received ethanol. Drugs were applied topically in an ethanol-based gel to the entire outer surface of both ears one hour prior to arachidonic acid application. Edema was measured by the increase in ear weight. An hour after arachidonic acid solution or vehicle was applied, an ear sample of 7 mm in diameter was obtained from both ears. Ear edema was calculated by subtracting the […], dividing by the weight of the left/Control ear, and averaging the results for each group of mice according to compound and concentration.

[2] = target: T1, leukotriene B4 specific receptor on the membrane of human neutrophils (Homo sapiens, UniProt Q15722); assay: Inhibition of Binding of ^3 H-LTB4 to Peripheral Human Neutrophils; details: 4° C., 10 minutes; for inhibition at 10 µM: drug concentration 10^-5 M, read-out: LTB4 Binding Inhibition; for inhibition at 1 µM: drug concentration 10^-6 M
T1 construct: incubating neutrophils (1×10^7 cells) with 0.1-0.2 nM ^3 H-LTB4; endogenous in cells; host or cells: human peripheral blood neutrophils (buffy coats of two blood donors)
Method: The effectiveness of compounds to inhibit the binding of leukotriene B4 to a specific receptor on the membrane of human neutrophils was measured by using an adaptation of a radio-ligand binding assay developed by Goldman and Goetzl, J. Immunol., 129, 1600 (1982). Other investigators have developed similar assays (see, e.g., Kreisle, et al., J. Exp. Med., 157, 628 (1983) and Lin, et al., Prostaglandins, 28, 837 (1984)).
Cells used in the assay were isolated by standard techniques of centrifugation on Ficol-Hypaque, dextran 70 sedimentation and hypotonic lysis. The following procedure was used. Freshly-prepared buffy coat layers from two individuals were obtained from a local blood donor center. The cells were mixed and diluted to 484 ml. with phosphate buffered saline containing heparin (10 units/ml) and heat-inactivated calf serum (5%). This was divided into 20 ml. aliquots and the aliquots layered on top of Ficoll-Paque (12 ml.). The material was then centrifuged at 500 g. for 40 minutes at room temperature. The resulting upper layer of platelets and mononuclear cells was discarded. The lower layer containing erythrocytes and neutrophils was retained. Buffer was added (1 ml. per 4 ml. of lower layer) and the suspension mixed. For each milliliter of this mixture, 0.33 ml. of 6% Macrodex was added. After stirring, the cels were allowed to sediment for 1 hour at 37° C. The resulting erythrocyte pellet was discarded and the neutrophil enriched supernatant fluid centrifuged at 500 g. for 10 minutes at 4° C. Erythrocytes still present in this cell pellet were lysed by incubating the cells with 5-8 ml. ice-cold distilled water for 30-45 seconds. Subsequently, the volume was made up to 50 ml. by addition of ice-cold buffer and the cells resuspended. The suspension was then centrifuged at 300 g. for 10 minutes at 4° C. The cells were finally resuspended at a cell density of 2×10^7 cells/ml in the assay buffer. This buffer Consisted of Hanks' balanced salt solution and 0.1% ovalbumin (pH 7.3).
The radio-ligand binding assay was conducted by incubating neutrophils (1×10^7 cells) with 0.1-0.2 nM ^3 H-LTB4 (sp. act. 150-220 Curies/mmol) and test compound (1×10^-5 M and 1×10^-6 M) for 10 minutes at 4° C. The amount of bound ^3 H-LTB4 was then measured and compared with the amount bound in the absence of test compound. The assay was carried out in microcentrifuge tubes by adding first 10 μl test compound dissolved in DMSO, followed by adding 20 μl ^3 H-LTB4 diluted in assay buffer, and finally adding 500 μl of the cell suspension pension. At the end of the 10 minutes incubation, 300 μl of a mixture of dibutyl and dinonyl phthalate (7:2) were added and the tubes centrifuged for 2 minutes in a microcentrifuge. The radioactivity bound to the cell pellet was measured by scintillation spectroscopy. Appropriate corrections for nonspecific bonding of ^3 H-LTB4 were made.

[3] = test system: IL-1 induced T-cell Proliferation; assay: Anti IL-1 Activity (Thymocyte Assay): suppression of IL-1 induced T-cell proliferation; assay type: cell-based, C3H/HeJ male mice; details: mouse thymocytes, 48 hours, read-out: Percent T-cell suppression; for inhibition at 1 µg/mL: 1 mcg/ml; for inhibition at 10 µg/mL: 10 mcg/ml
Method: Thymus from 3-4 week old C3H/HeJ male mice and were passed through a #100 mesh screen to make a single cell suspension. The cells were suspended in RPMI-1640 supplemented with 2×10^-5 M 2-mercaptoethanol, 3% fetal calf serum, and 1% Penicillin/Streptomycin. The cell suspension was placed in a tissue culture flask and incubated at 37° C. in 5% carbon dioxide in air for 1-2 hours. The thymocytes were decanted, leaving adherent cells behind, and the liquid was centrifuged at 1400 rpm for 10 minutes. After decanting the supernatant, the cells were resuspended and counted with a hemocytometer. The density was adjusted to […]. Fifty μ1 of the suspension were added to each well of a 96-well microtiter plate, followed by the addition of 25 μl of PHA and 25 μl IL-1 (1:25 dilution of a 10 mcg/ml stock solution) per well.
Each compound to be tested was dissolved in 30% DMSO/70% PBS to make a stock solution of 1 mg/ml. Fifteen μl of each compound were added to 300 μl of media in the serial dilution plate. Twenty-five μl of each drug were added to the test plate in quadruplicate wells across the plate. The plate was incubated at 37° C. in 5% carbon dioxide in air for 48 hours. The wells were pulsed with tritiated thymidine (5 μCi.well) for 4 hours before harvesting on a Skatron cell harvester. The filter discs were placed in mini-vials, scintillation fluid (Tol-Pop) was added, and the vials counted. The percent of counts for each vial compared with control samples wherein no compound was added (vehicles only) was determined for each compound and are reported as Table III below as the percent T-ce1 suppression.

T1 sequence (Q15722 whole entry): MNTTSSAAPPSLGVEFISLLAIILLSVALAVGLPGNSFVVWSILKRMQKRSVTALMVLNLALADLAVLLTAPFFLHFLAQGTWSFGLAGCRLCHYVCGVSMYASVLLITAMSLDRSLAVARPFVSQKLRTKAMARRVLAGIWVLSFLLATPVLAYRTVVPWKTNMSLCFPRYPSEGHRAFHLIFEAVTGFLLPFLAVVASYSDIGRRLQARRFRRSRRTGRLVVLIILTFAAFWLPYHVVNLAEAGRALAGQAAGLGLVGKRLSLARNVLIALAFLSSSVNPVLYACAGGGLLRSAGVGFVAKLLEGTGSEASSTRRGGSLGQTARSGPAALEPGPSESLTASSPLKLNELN

SMILES	inhibition at 10 µM [2] [%]	inhibition at 1 µM [2] [%]	inhibition in vivo at 0.01 % ([1]; 0.01% in ethanol gel) [%]	inhibition in vivo at 0.05 % [1] [%]	inhibition at 1 µg/mL [3] [%]	inhibition at 10 µg/mL [3] [%]	inhibition in vivo at 1 % [1] [%]
CCc1cc(C(C)=O)c(OC)cc1OCc1cccc(C#N)c1 [Example 114]	52	8	44	40			
C=CCc1cc(C(C)=O)c(O)cc1OCc1cccc(-c2nnn(C)n2)c1 [Example 121]	27 to 38	34 to 38		0			
C=CCc1cc(C(C)=O)c(O)cc1OCCCCc1nn[nH]n1 [Example 109, 2-Hydroxy-5-allyl-4-[4-(lH-tetrazol-5-yl)-butoxy]acetophenon]	41	3			7	56	
CCc1cc(C(=O)CCCCC(=O)O)c(O)cc1OCCCCC#N [Example 90, 6-[(4-Cyanobutoxy)-5-ethyl-2-hydroxybenzene]-6-oxohexanoic acid]	1	-2			3	47	
C=CCc1cc(C(C)=O)c(OC)cc1OCCCCC#N [Example 115, 5-(4-Acetyl-5-methoxy-2-allylphenoxy)pentanenitrile]	12 to 16	7 to 8			29	96	
C=CCc1cc(C(C)=O)c(O)cc1OCCCCN(C)C [Example 76, 4-[4-(Dimethylamino)butoxy]-2-hydroxy-5-allylacetophenone hydrochloride]	0	0			39	79	
CCc1cc(C(=O)c2ccccc2)c(O)cc1OCCCCC#N [Example 130, 5-(4-Benzoyl-2-ethyl-5-hydroxyphenoxy)pentane-nitrile]	48	23			41	99	
CCc1cc(C(C)=O)c(O)cc1OCc1cccc(Cl)c1 [Example 56, 4-(3-Chlorobenzyloxy)-5-ethyl-2-hydroxyacetophenone]	42	15		6			
CCc1cc(C(=O)c2ccccc2C(=O)O)c(O)cc1OCCCCC#N [Example 89, 2-[4-(4-Cyanobutoxy)-5-ethyl-2-hydroxybenzoyl]benzoic acid]	11	15			9	39	

The next lines start with results.

inhibition at 10 µM [2] [%]	inhibition at 1 µM [2] [%]	SMILES	inhibition in vivo at 0.01 % ([1]; 0.01% in ethanol gel) [%]	inhibition in vivo at 0.05 % [1] [%]	inhibition at 1 µg/mL [3] [%]	inhibition at 10 µg/mL [3] [%]	inhibition in vivo at 1 % [1] [%]
37	7	CCCCc1cc(C(C)=O)c(O)cc1OCCCCC#N [Example 30, 5-(4-Acetyl-2-butyl-5-hydroxyphenoxy)-pentanenitrile]			32	91	
0	0	CCCc1cc(C(C)=O)c(O)cc1OCCCCC(=O)O [Example 132, 5-(4-Acetyl-5-hydroxy-2-propylphenoxy)pentanoic acid]			15	59	
40	7	CC(=O)c1cc(CO)c(OCCCCCCC#N)cc1O [Example 36, 7-[4-Acetyl-5-hydroxy-2-(hydroxymethyl)-phenoxy]heptanenitrile]			15	75	
35	13	CCCc1cc(C(C)=O)c(Cl)cc1OCCCCC#N [Example 15, 5-(4-Acetyl-5-chloro-2-propylphenoxy)-pentanenitrile]			33	91	
10	6	C=CCc1cc(C(=O)CCCCCCCCC)c(O)cc1OCCCCC#N [Example 107, 5-[5-Hydroxy-4-(1-oxodecyl)-2-allylphenoxy]pentanenitrile]			47	26	
40	20	CCc1cc(C(=O)c2cccc(C(=O)O)c2)c(O)cc1OCCCCC#N [Example 92]			5	38	
16	8	C=CCc1cc(C(C)=O)c(O)cc1OCCCCCCCC [Example 38, 4-(Octyloxy)-5-allyl-2-hydroxyacetophenone]			-8	28	
78	38	C=CCc1cc(C(C)=O)c(O)cc1OCCCCCCSC [Example 78, 2-Hydroxy-4-[6-(methylthio)hexyloxy]-5-allylaoetophenone]					46
10	6	CC(=O)c1cc(CC(C)O)c(OCCCCC#N)cc1O (centres unmarked) [Example 125, 5-[4-Acetyl-5-hydroxy-2-(2-hydroxypropyl)-phenoxy]pentanenitrile]			30	85	
58	23	CCc1cc(C(C)=O)c(O)cc1OCc1cccc(SC)c1 [Example 59, 4-(3-Methylmercaptobenzyloxy)-5-ethyl-2-hydroxyacetophenone]		0			
100	61	CCc1cc(C(C)=O)c(O)cc1OCCCCCCC(=O)N(C)C [Example 98, 7-(4-Acetyl-2-ethyl-5-hydroxyphenoxy)-N,N-dimethylheptanamide]			14	85	17
